Assay results published in ChEMBL document CHEMBL5634165, “Design, synthesis and activity evaluation of quinolinone derivatives as EZH2 inhibitors” (Bioorg Med Chem Lett, 2024).
Activity calls are given as the source filed them. The rule behind the calls is not given here.

Columns and labels:
[1] = target: T1, Histone-lysine N-methyltransferase EZH2 (Homo sapiens, UniProt Q15910); assay: Inhibition of EZH2 (unknown origin)
Target sequence in this assay (Q15910 whole entry): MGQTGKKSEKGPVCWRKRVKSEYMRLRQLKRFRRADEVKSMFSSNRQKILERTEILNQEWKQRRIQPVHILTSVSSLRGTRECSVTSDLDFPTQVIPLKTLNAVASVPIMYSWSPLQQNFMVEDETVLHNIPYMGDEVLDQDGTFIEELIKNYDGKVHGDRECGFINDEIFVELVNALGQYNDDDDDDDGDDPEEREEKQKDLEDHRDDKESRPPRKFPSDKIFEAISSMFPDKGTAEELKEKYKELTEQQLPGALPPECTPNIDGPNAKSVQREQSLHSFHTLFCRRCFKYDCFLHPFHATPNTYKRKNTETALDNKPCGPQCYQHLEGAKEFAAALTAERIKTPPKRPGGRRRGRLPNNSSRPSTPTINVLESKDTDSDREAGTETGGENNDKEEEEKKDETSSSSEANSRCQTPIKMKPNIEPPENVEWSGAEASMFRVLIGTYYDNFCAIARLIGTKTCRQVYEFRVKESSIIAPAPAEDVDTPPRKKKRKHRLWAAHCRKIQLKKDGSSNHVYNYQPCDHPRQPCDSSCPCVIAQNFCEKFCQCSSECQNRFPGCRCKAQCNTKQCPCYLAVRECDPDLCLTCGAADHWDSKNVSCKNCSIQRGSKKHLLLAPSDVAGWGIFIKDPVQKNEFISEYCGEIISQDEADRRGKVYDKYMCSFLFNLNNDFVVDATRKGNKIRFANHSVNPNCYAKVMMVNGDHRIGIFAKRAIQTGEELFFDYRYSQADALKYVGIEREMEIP

[2] = target: Histone-lysine N-methyltransferase EZH2 (Homo sapiens, UniProt Q15910, Y641F); assay: Inhibition of EZH2 Y641F mutant (unknown origin)
Histone-lysine N-methyltransferase EZH2 (Homo sapiens, UniProt Q15910, Y641F), sequence (Q15910 whole entry Y641F): as the sequence (Q15910 whole entry) above, with Y641F counted along it

HeLa [3] = assay: Antiproliferative activity against human HeLa cells by MTT assay; format: functional, cell-based
A549 [4] = assay: cells; settings: Homo sapiens
Description: Antiproliferative activity against human A549 cells by MTT assay

A549 [5] = assay: Inhibition of colony formation in human A549 cells assessed as clone formation rate relative to control; format: functional; design: concentration or dose not given beside the values
A549 [6] = assay: Induction of apoptosis in human A549 cells assessed as viable cells incubated for 24 hrs by Annexin V/PI staining based flow cytometry analysis (reference value: 91.6 %); format: functional
A549 [7] = assay: Induction of apoptosis in human A549 cells assessed as early apoptotic cells incubated for 24 hrs by Annexin V/PI staining based flow cytometry analysis (reference value: 1.17 %); format: functional
A549 [8] = assay: Induction of apoptosis in human A549 cells assessed as late apoptotic cells incubated for 24 hrs by Annexin V/PI staining based flow cytometry analysis (reference value: 5.03 %); format: functional
A549 [9] = assay: Induction of apoptosis in human A549 cells assessed as necrotic cells incubated for 24 hrs by Annexin V/PI staining based flow cytometry analysis (reference value: 1.35 %); format: functional
HeLa [10] = assay: Inhibition of colony formation in human HeLa cells assessed as clone formation rate relative to control; format: functional; design: scale not given: the % may be the effect or the level left
HeLa [11] = assay: Induction of apoptosis in human HeLa cells assessed as viable cells by Annexin V/PI staining based flow cytometry analysis (reference value: 91.0 %); format: functional
HeLa [12] = assay: Induction of apoptosis in human HeLa cells assessed as early apoptotic cells by Annexin V/PI staining based flow cytometry analysis (reference value: 1.72 %); format: functional
HeLa [13] = assay: Induction of apoptosis in human HeLa cells assessed as late apoptotic cells by Annexin V/PI staining based flow cytometry analysis (reference value: 6.46 %); format: functional
HeLa [14] = assay: Induction of apoptosis in human HeLa cells assessed as nectrotic cells by Annexin V/PI staining based flow cytometry analysis (reference value: 0.782 %); format: functional
HeLa [15] = assay: Inhibition of cell migration in human HeLa cells assessed as reduction of cell scratch width incubated for 24 hrs; format: functional, cell-based
[16] = target: T1, Histone-lysine N-methyltransferase EZH2; assay: Inhibition of EZH2 in human A549 cells assessed as reduction in H3K27me3 expression level at 3 uM incubated for 72 hrs by Western blotting analysis; format: cell-based
Target sequence in this assay (Q15910 whole entry, looked up): as the sequence (Q15910 whole entry) above

[17] = target: T1, Histone-lysine N-methyltransferase EZH2; assay: Inhibition of EZH2 in human A549 cells assessed as reduction in H3K27me3 expression level incubated for 72 hrs by Western blotting analysis; format: cell-based; settings: dose 1-3 µM
Target sequence in this assay (Q15910 whole entry, looked up): as the sequence (Q15910 whole entry) above

SMILES	IC50 [1]	IC50 [2]	IC50 (HeLa [3])	IC50 (A549 [4])	Activity (A549 [5])	Activity (A549 [6])	Activity (A549 [7])	Activity (A549 [8])	Activity (A549 [9])	Activity (HeLa [10])	Activity (HeLa [11])	Activity (HeLa [12])	Activity (HeLa [13])	Activity (HeLa [14])	inhibition (HeLa [15])	inhibition [16]	inhibition [17]
COc1c(C)cccc1-c1cc(C(=O)NCc2c(C)cc(C)[nH]c2=O)c2ccc(=O)[nH]c2c1	4.21 nM	10.4 nM	> 50000 nM	35700 nM													
Cc1cc(C)c(CNC(=O)c2cc(-c3ccc(-c4ccccc4)cc3)cc3[nH]c(=O)ccc23)c(=O)[nH]1	1.67 nM	7.4 nM	29400 nM	13400 nM	42%	38.4%	10.1%	47.3%	3.6%								
Cc1ccc(-c2cc(C(=O)NCc3c(C)cc(C)[nH]c3=O)c3ccc(=O)[nH]c3c2)cc1	2.74 nM	7.76 nM	33800 nM	27600 nM													
COc1cccc(OC)c1-c1cc(C(=O)NCc2c(C)cc(C)[nH]c2=O)c2ccc(=O)[nH]c2c1	5.84 nM	8.87 nM	> 50000 nM	38300 nM													
COc1ccc2cc(-c3cc(C(=O)NCc4c(C)cc(C)[nH]c4=O)c4ccc(=O)[nH]c4c3)ccc2c1	6.63 nM	7.48 nM	> 50000 nM	20600 nM													
Cc1cc(C)c(CNC(=O)c2cc(-c3ccccc3)cc3[nH]c(=O)ccc23)c(=O)[nH]1	6.27 nM	10.3 nM	43200 nM	19600 nM													
COc1cc(-c2cc(C(=O)NCc3c(C)cc(C)[nH]c3=O)c3ccc(=O)[nH]c3c2)ccc1F	0.94 nM	5.43 nM	18400 nM	12300 nM	46%	78.2%	3.63%	17.3%	0.8%	39%	58.5%	5.85%	33.3%	4.32%	Active	Active	
Cc1cc(C)c(CNC(=O)c2cc(-c3cccnc3)cc3[nH]c(=O)ccc23)c(=O)[nH]1	3.78 nM	8.54 nM	47400 nM	24300 nM													
Cc1cc(C)c(CNC(=O)c2cc(-c3ccc(Br)cc3)cc3[nH]c(=O)ccc23)c(=O)[nH]1	1.01 nM	5.68 nM	25300 nM	11000 nM	40%	34.7%	12.4%	51.8%	1.07%	45%		4.72%	16.5%		Active		Dose-Dependent Effect
Cc1cc(C)c(CNC(=O)c2cc(-c3ccc(C(=O)O)cc3)cc3[nH]c(=O)ccc23)c(=O)[nH]1	2.12 nM	6.45 nM	20400 nM	12800 nM	58%					49%							
CCN(c1cc(-c2ccc(CN3CCOCC3)cc2)cc(C(=O)NCc2c(C)cc(C)[nH]c2=O)c1C)C1CCOCC1 [TAZEMETOSTAT]			27700 nM	15800 nM	45%	34.3%	2.3%	52.6%	10.8%	47%	74%	5.21%	19.6%	1.2%			
Cc1cc(C)c(CNC(=O)c2cc(-c3cccc4ccccc34)cc3[nH]c(=O)ccc23)c(=O)[nH]1	7.42 nM	12.2 nM	> 50000 nM	30300 nM													
Cc1cc(C)c(CNC(=O)c2cc(-c3ccc4ncccc4c3)cc3[nH]c(=O)ccc23)c(=O)[nH]1	8.23 nM	11.7 nM	> 50000 nM	> 50000 nM													
Cc1cc(C)c(CNC(=O)c2cc(-c3ccc(Oc4ccccc4)cc3)cc3[nH]c(=O)ccc23)c(=O)[nH]1	8.21 nM	9.41 nM	46300 nM	> 50000 nM													
